Some targets named below: A*6801 (Homo sapiens, UniProt P04439, A269V/D185E/E176V/E277Q/E87N/F33Y/G231S/I121M/I166T/I218V/L180W/L300P/L318F/N151K/P208A/P217A/Q86R/R169H/T345S); HLA-A11 (A*1101) (Homo sapiens, UniProt P04439, A114D/D185E/E176A/F33Y/L180Q/S129P/T187R); A*3301 (Homo sapiens, UniProt P04439, A270S/D185E/E176V/E277Q/E87N/F33T/G231S/H175R/I121M/I218V/I322F/K168Q/K210R/L300P/L318F/M331R/P217A/Q86R/Q94H/R138Q/T323A/T345S/T97I/V358M/Y195H); A31 (A*3101) (Homo sapiens, UniProt P04439, A270S/D185E/E176V/E277Q/F33T/G231S/G80R/H175R/I121M/I218V/I322F/K168Q/L300P/L318F/M331R/P217A/Q94H/R138Q/T323A/T345S/T97I/V358M); HLA-A3.2 (A*0301) (Homo sapiens, UniProt P04439).

What all share (assay): biochemical
Common to all, as to format: binding

No end group written: not given here.

As for STCMGGMNR [Peptide 1556.61], the IC50 (usually the concentration that gives 50% inhibition) against A*6801 is 1630 nM; against HLA-A11 (A*1101) it was 1100 nM; against A*3301, 17900 nM; against A31 (A*3101) it was 157 nM; against HLA-A3.2 (A*0301), 281 nM.
For SVICFVNSK [Peptide 1587.15], the IC50 against A*6801 was 8.6 nM; on HLA-A11 (A*1101) it was 3.5 nM; against A*3301 it was 2850 nM; on A31 (A*3101), 1910 nM; against HLA-A3.2 (A*0301) it was 109 nM.
For VVQQLLMGA [Peptide 78.0338], in that order: 1440 nM, greater than 20000 nM, 438 nM, 2830 nM and greater than 20000 nM.
Turning to AFRDLCIVYR [Peptide 78.0079], the IC50 at A*6801 turned out to be 600 nM; against HLA-A11 (A*1101), 4380 nM; on A*3301, 41 nM; against A31 (A*3101) it was 13 nM; against HLA-A3.2 (A*0301), 3110 nM.
On to VFADLRIVYR [Peptide 78.0073], for which the IC50 at A*6801 is 197 nM; against HLA-A11 (A*1101), 2090 nM; against A*3301, 52 nM; against A31 (A*3101), 31 nM; on HLA-A3.2 (A*0301), greater than 20000 nM.
For STVSVGTAK [Peptide 1589.09], in that order: 9.9 nM, 6 nM, 16000 nM, 1760 nM and 34 nM.
For MQYVAWKYIY [Peptide 88.0233], in that order: 12100 nM, 52 nM, greater than 20000 nM, greater than 20000 nM and 1890 nM.
For SFSELVRPFK [Peptide 1587.03], in that order: 5340 nM, 551 nM, 24 nM, 2 nM and 4250 nM.
Consider VIDSPAGQA [Peptide 78.0316], for which the IC50 at A*6801 amounted to 983 nM; on HLA-A11 (A*1101) it was 9430 nM; on A*3301, 913 nM; at A31 (A*3101), 407 nM; against HLA-A3.2 (A*0301), 13000 nM.
For KLFGYSWYK [Peptide 76.0146], in that order: 16 nM, 7.3 nM, 3720 nM, 7.3 nM and 11 nM.
For `CSCC[C@H](NC(=O)[C@@H](N)CCCCN)C(=O)N[C@@H](Cc1ccccc1)C(=O)N[C@@H](CS)C(=O)N[C@@H](CCC(N)=O)C(=O)N[C@@H](CC(C)C)C(=O)N[C@@H](C)C(=O)N[C@@H](CCCCN)C(=O)O` [Peptide 1556.52], in that order: 1280 nM, 22 nM, greater than 20000 nM, 410 nM and 37 nM.
For AQIEHWKLTR [Peptide 88.0226], in that order: 2900 nM, 63 nM, greater than 20000 nM, 293 nM and 2070 nM.
For VTVYYGVPIWK [Peptide 1525.02], the IC50 against A*6801 turned out to be 5 nM; on HLA-A11 (A*1101), 2.3 nM; against A*3301, 1350 nM; against A31 (A*3101) it was 150 nM; against HLA-A3.2 (A*0301) it was 18 nM.
For ILYQSNPYPK [Peptide 9017.0198], in that order: 37 nM, 14 nM, 11000 nM, 549 nM and 8.8 nM.
For LLYGAANTGK [Peptide 1587.12], in that order: 76 nM, 16 nM, greater than 20000 nM, 6720 nM and 3.3 nM.
For GTRQARKNRR [Peptide 9017.0200], the IC50 at A*6801 came to 1480 nM; against HLA-A11 (A*1101) it was 2920 nM; at A*3301, 8370 nM; on A31 (A*3101), 56 nM; against HLA-A3.2 (A*0301), 1550 nM.
For VFCGPANTGK [Peptide 88.0150], in that order: 3000 nM, 1660 nM, 811 nM, 485 nM and 1950 nM.
For QSNPYPEPK [Peptide 9017.0070], in that order: 868 nM, 46 nM, greater than 20000 nM, 513 nM and 1040 nM.
As to KIDWLIKRIR [Peptide 9017.0248], the IC50 was greater than 20000 nM against A*6801; 8630 nM against HLA-A11 (A*1101); 6690 nM against A*3301; 19 nM at A31 (A*3101); 8650 nM on HLA-A3.2 (A*0301).
For GTFKCSAGK [Peptide 88.0373], in that order: 81 nM, 14 nM, 18200 nM, 617 nM and 23 nM.
For NSNASAFLK [Peptide 1587.07], the IC50 against A*6801 worked out at 27 nM; against HLA-A11 (A*1101), 13 nM; on A*3301, 269 nM; on A31 (A*3101), 3400 nM; against HLA-A3.2 (A*0301), 426 nM.
For KIKPPLPSVR [Peptide 9017.0234], in that order: 14700 nM, 6950 nM, 3440 nM, 8.1 nM and 1110 nM.
Regarding RLIERIRER [Peptide 9017.0124], the half-maximal inhibitory concentration (IC50) against A*6801 came out at 983 nM; on HLA-A11 (A*1101) it was 407 nM; against A*3301, 1100 nM; on A31 (A*3101), 14 nM; on HLA-A3.2 (A*0301) it was 57 nM.
For LLYGPANTGK [Peptide 1587.56], in that order: 44 nM, 8.8 nM, 14500 nM, 6300 nM and 14 nM.
For AACWRSRRR [Peptide 78.0322], the IC50 against A*6801 was greater than 20000 nM; at HLA-A11 (A*1101), 18800 nM; against A*3301, 17500 nM; against A31 (A*3101) it was 407 nM; against HLA-A3.2 (A*0301), 5600 nM.
For TALIKPKKR [Peptide 9017.0102], in that order: 295 nM, 2730 nM, 774 nM, 1740 nM and greater than 20000 nM.
Turning to EFTAFLGAFK [Peptide 88.0167], the IC50 against A*6801 is 197 nM; against HLA-A11 (A*1101), 293 nM; against A*3301, 35 nM; at A31 (A*3101) it was greater than 20000 nM; against HLA-A3.2 (A*0301), 4670 nM.
Regarding ALFTAQEAK [Peptide 88.0323], the IC50 is 603 nM against A*6801; 13 nM at HLA-A11 (A*1101); 16100 nM at A*3301; 2660 nM at A31 (A*3101); 28 nM against HLA-A3.2 (A*0301).
For TQQMLQVEGR [Peptide 88.0128], in that order: 739 nM, 3000 nM, 1850 nM, 354 nM and greater than 20000 nM.
For `CC(C)C[C@H](NC(=O)[C@H](Cc1c[nH]cn1)NC(=O)[C@H](CO)NC(=O)[C@H](CO)NC(=O)[C@H](Cc1c[nH]cn1)NC(=O)[C@H](C)NC(=O)[C@@H](N)CCCNC(=N)N)C(=O)N[C@@H](CCCCN)C(=O)O` [Peptide 1556.70], in that order: 2880 nM, 18 nM, greater than 20000 nM, 619 nM and 27 nM.
For HLFGYSYYK [Peptide 76.0191], in that order: 14 nM, 2.7 nM, 3470 nM, 1800 nM and 11 nM.
Consider SVAALYWYR [Peptide 88.0341], for which the IC50 against A*6801 came out at 4.1 nM; against HLA-A11 (A*1101), 4.5 nM; against A*3301 it was 0.87 nM; against A31 (A*3101), 3.7 nM; on HLA-A3.2 (A*0301), 32 nM.
For the compound LVKMFCQLAK [Peptide 1556.50], the IC50 amounted to 221 nM on A*6801, 189 nM against HLA-A11 (A*1101), 3340 nM against A31 (A*3101) and 1200 nM against HLA-A3.2 (A*0301).
For FLGAFKKFLK [Peptide 88.0169], in that order: 275 nM, 9.6 nM, 11 nM and 3.3 nM.
For QLVTQLMPK [Peptide 9012.0211], in that order: 2260 nM, 79 nM, greater than 20000 nM and 88 nM.
For ETNEALELK [Peptide 1556.68], in that order: 1440 nM, 93 nM, greater than 20000 nM and 16800 nM.
With WTIVYIEYRK [Peptide 9017.0243], the IC50 was 0.94 nM against A*6801, 37 nM against HLA-A11 (A*1101), 1350 nM on A31 (A*3101) and 4890 nM against HLA-A3.2 (A*0301).
As to LQQLLFIHFR [Peptide 9017.0241], the IC50 was found to be 81 nM against A*6801, 58 nM against HLA-A11 (A*1101), 1.3 nM against A31 (A*3101) and 2490 nM on HLA-A3.2 (A*0301).
For RVHSSHLK [Peptide 1556.72], in that order: 1630 nM, 13 nM, 483 nM and 144 nM.

The values are drawn from patent publication US9340577B2, “HLA binding motifs and peptides and their uses” (priority 1992, dated 2016).
